The results in this text go back to patent publication US5668150A, “Non-symmetrical bis-heteroarylmethoxyphenylalkyl carboxylates as inhibitors of leukotriene biosynthesis” (Abbott Laboratories, priority 1996, dated 1997).

For the test, the system named is 5-Lipoxygenase. Put plainly: Inhibition of leukotriene biosynthesis in vitro: calcium ionophore-induced LTB4 formation in human polymorphonuclear leukocytes (PMNL). Type of test: cell-based. The following applies: calcium ionophore 8.3 μM, 15 min preincubation, 37 °C; for % I, In Vitro Inhibitory Potencies Against 5-Lipoxygenase from Stimulated LTB4 Formation in Human Polymorphonuclear Leukocytes: @ 0.10 μM; for IC50: read-out: IC50, In Vitro Inhibitory Potencies Against 5-Lipoxygenase from Stimulated LTB4 Formation in Human Polymorphonuclear Leukocytes. How it is done: Inhibition of leukotriene biosynthesis was evaluated in vitro using an assay involving calcium ionophore-induced LTB4 expressed in human (PMNL). Human PMNL isolated from heparinized (20 USP units/mL) venous blood (25 mL) obtained from healthy volunteers was layered over an equal volume of Ficoll-Hypaque Mono-Poly Resolving Medium (ICN Flow, Costa Mesa, Calif.) and centrifuged at 400×g for 40 min at 20° C. The PMNL was collected, erythrocytes lysed and washed 2× and suspended at 1.0×10^7 cells/mL in Earle's balanced salt solution with 17 mM Earle's HEPES. Aliquots of the cell suspension were preincubated with test compounds dissolved in DMSO (final concentration <2%) for 15 min. and stimulated with calcium ionophore (final concentration 8.3 μM) for 10 min. at 37 ° C. Incubations were stopped with the addition of two volumes of ice-cold methanol followed by centrifuging the cell suspensions at 4° C. for 10 rain at 450×g. The mount of LTB4 in the methanol extract was analyzed by enzyme-linked immunoassay or by HPLC analysis.

Counter-ions that a name gives are not always drawn. Like-named read-outs stand apart in the source and are kept apart here.

Regarding `CC(CCC(=O)O)(c1ccc(OCc2ccc3ccccc3n2)cc1)c1ccc(OCc2nc3ccccc3s2)cc1` (centres unmarked) [Example 1, 4-(4-(2-benzothiazolylmethoxy)phenyl)-4-(4-(2-quinolylmethoxy)phenyl)pentanoic acid], the “% I, In Vitro Inhibitory Potencies Against 5-Lipoxygenase from Stimulated LTB4 Formation in Human Polymorphonuclear Leukocytes” value is recorded as 95%.
With `CC(CCC(=O)O)(c1ccc(OCc2ccc3ccccc3n2)cc1)c1ccc(OCc2nc3ccccc3s2)cc1` (centres unmarked) [Example 2, 4-(4-(2-benzothiazolylmethoxy)phenyl)-4-(4-(2-quinolylmethoxy)phenyl)pentanoic acid sodium salt], the IC50 – broadly, the midpoint of a concentration-inhibition curve – amounted to 52 nM.
In the case of `CC(CCC(=O)O)(c1ccc(OCc2ccc3ccccc3c2)cc1)c1ccc(OCc2ccc3ccccc3n2)cc1` (centres unmarked) [Example 3, 4-(4-(2-naphthylmethoxy)phenyl)-4-(4-(2-quinolylmethoxy)phenyl)pentanoic acid], the “% I, In Vitro Inhibitory Potencies Against 5-Lipoxygenase from Stimulated LTB4 Formation in Human Polymorphonuclear Leukocytes” value came out at 93%.
On to `Cn1c(COc2ccc(C(C)(CCC(=O)O)c3ccc(OCc4ccc5ccccc5n4)cc3)cc2)nc2ccccc21` (centres unmarked) [Example 5, 4-(4-(2-(1-methyl)benzimidazolylmethoxy)phenyl)-4-(4-(2-quinolylmethoxy)phenyl)pentanoic acid sodium salt], for which, where the note is “sodium salt”, the IC50 amounted to 80 nM.
As to `Cn1c(COc2ccc(C(C)(CCC(=O)O)c3ccc(OCc4ccc5ccccc5n4)cc3)cc2)nc2ccccc21` (centres unmarked) [Example 6, 4-(4-(2-(1-methyl)benzimidazolylmethoxy)phenyl)-4-(4-(2-quinolylmethoxy)phenyl)pentanoic acid sodium salt], the half-maximal inhibitory concentration (IC50) (sodium salt) is 90 nM.
